Experimental data: patent US4443459A, “α-Tocopheryl ester of 5-substituted picolinic acid and hypotensive composition containing it” (Banyu Pharmaceutical Co., Ltd., priority 1981, dated 1984)
Read-outs that look alike come from different tables or passages of the source.

Experiments:
[1] = Acute toxicity LD50, intraperitoneal (Table 5); conditions: mouse, in vivo, ip
Text: (§1) The following Tables 4 and 5 summarize the maximum blood pressure lowering rates and the acute toxicity values (LD50 values) of other typical examples of the compound of formula (I).
In Table 5, each compound was intraperitoneally administered to mice.

[2] = tested on: Spontaneous hypertensive rats; test: Maximum blood pressure lowering rate, oral (Table 4); type: in vivo; conditions: Rattus norvegicus, 0.01 mmol/kg oral
Text: as §1
In Table 4, 0.01 mmol/kg of each compound was orally administered to spontareous hypertensive rats.

[3] = molecular target: T1, dopamine β-hydroxylase (Bos taurus, UniProt P15101); test: 50% dopamine β-hydroxylase inhibitory concentration; type: biochemical
T1 sequence (P15101 1-610): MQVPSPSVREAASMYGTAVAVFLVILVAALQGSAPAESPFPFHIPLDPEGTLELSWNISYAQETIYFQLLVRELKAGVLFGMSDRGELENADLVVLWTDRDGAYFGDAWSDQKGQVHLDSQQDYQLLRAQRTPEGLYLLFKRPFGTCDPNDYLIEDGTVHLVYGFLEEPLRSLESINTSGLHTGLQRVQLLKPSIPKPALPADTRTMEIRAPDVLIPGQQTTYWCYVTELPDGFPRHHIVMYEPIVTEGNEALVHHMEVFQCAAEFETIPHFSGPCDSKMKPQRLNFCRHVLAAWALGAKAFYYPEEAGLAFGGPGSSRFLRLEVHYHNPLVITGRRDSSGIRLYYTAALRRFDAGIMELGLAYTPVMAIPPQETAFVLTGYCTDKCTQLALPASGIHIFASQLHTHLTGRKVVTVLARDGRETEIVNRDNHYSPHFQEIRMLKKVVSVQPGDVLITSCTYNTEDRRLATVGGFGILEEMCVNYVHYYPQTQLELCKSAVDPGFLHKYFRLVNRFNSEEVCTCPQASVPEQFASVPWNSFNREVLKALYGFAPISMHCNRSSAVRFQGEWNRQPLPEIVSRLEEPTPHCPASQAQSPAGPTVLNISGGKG

[4] = in vivo; conditions: mouse, mice
Method: (§2) ddY-Strain female mice (body weight about 20 g), five per group, were used and each of the test compounds was orally or intraperitoneally administered, and two days after the administration, the number of dead mice was counted. From it, the acute toxicity LD50 of each of the compounds was determined by the Behrens-Kraerber method.

[5] = tested on: ddY-Strain female mice; test: in vivo; conditions: mouse, 4000 mg/kg
Method: as §2

[6] = tested on: Spontaneous hypertensive rats; test: Hypotensive action in spontaneous hypertensive rats, oral (tail artery pressure, plethysmography; Table 1); type: in vivo, rat (spontaneous hypertensive, male)
Text: (§3) dl-α-tocopheryl 5-butylpicolinate and dl-α-tocopherol were used after they were each dissolved in a suitable amount of ethyl ether, mixed with a solution containing 2% of Tween 80 and 2% of Span 40 and after removing ethyl ether, uniformly emulsified. 5-Butylpicolinic acid was used as a solution in 2% Tween 80+2% Span.
(§4) Spontaneous hypertensive rats (male, body weight 350 to 370 g) and Wistar rats with a normal blood pressure level (female, body weight 250 to270 g), three per group, were used. Without anesthesia, the pressure of the tail artery was measured by plethysmography.

[7] = tested on: Normotensive Wistar rats; test: Hypotensive action in normotensive Wistar rats, oral (tail artery pressure, plethysmography; Table 2); type: in vivo, rat (Wistar, female)
Text: as §3, §4

[8] = read-out: LD50 of the 5-substituted picolinic acid
[9] = corresponding acid, read-out: Maximum blood pressure lowering rate (%) of the 5-substituted picolinic acid
[10] = read-out: LD50 of the compound of the invention
[11] = ester of formula (I), read-out: Maximum blood pressure lowering rate (%) of the compound of the invention
[12] = intraperitoneal, mice, corresponding acid, read-out: LD50 of the 5-substituted picolinic acid
[13] = 9.375 mg/kg oral, spontaneous hypertensive rats
[14] = 37.5 mg/kg oral, spontaneous hypertensive rats

| SMILES | LD50 [1, 8] [mg/kg] | inhibition in vivo at 10 µmol/kg [2, 9] [%] | LD50 [1, 10] [mg/kg] | inhibition in vivo at 10 µmol/kg [2, 11] [%] | other results |
| --- | --- | --- | --- | --- | --- |
| O=C(O)c1ccc(Cc2ccccc2)cn1 [reference compound] | 135 | 39 |  |  |  |
| Cc1c(C)c2c(c(C)c1OC(=O)c1ccc(CCCCCl)cn1)CCC(C)(CCCC(C)CCCC(C)CCCC(C)C)O2 (racemic) [Example 7, dl-α-tocopheryl 5-(4-chlorobutyl)picolinate] |  |  | > 4000 | 50 |  |
| O=C(O)c1ccc(OCCCCCl)cn1 [reference compound] | 172 | 43 |  |  |  |
| CCCSc1ccc(C(=O)O)nc1 [n-Propyl, propylthiopicolinic acid] | 167 | 33 |  |  | IC50 ([3]; Table 6): 0.7 µM |
| O=C(O)c1ccc(CCC(Br)CBr)cn1 (stereo not drawn) [5-(3,4-dibromobutyl)picolinic acid, reference compound] |  | 50 |  |  | LD50 [1, 12]: 110 mg/kg |
| O=C(O)c1ccc(CCC(Cl)CCl)cn1 (stereo not drawn) [reference compound] | 41 | 53 |  |  |  |
| CCCCOc1ccc(C(=O)Oc2c(C)c(C)c3c(c2C)CCC(C)(CCCC(C)CCCC(C)CCCC(C)C)O3)nc1 (racemic) [Example 14, dl-α-tocopheryl 5-butyloxypicolinate] |  |  | > 4000 | 36 |  |
| CCCSc1ccc(C(=O)Oc2c(C)c(C)c3c(c2C)CCC(C)(CCCC(C)CCCC(C)CCCC(C)C)O3)nc1 (racemic) [Example 25, dl-α-tocopheryl 5-propylthiopicolate] |  |  | > 4000 | 31 |  |
| CSc1ccc(C(=O)O)nc1 [Methyl] |  |  |  |  | IC50 ([3]; Table 6): 7.5 µM |
| O=C(O)c1ccc(CCCCCl)cn1 [reference compound] | 44 | 46 |  |  |  |
| Cc1c(C)c2c(c(C)c1OC(=O)c1ccc(OCCCCCl)cn1)CCC(C)(CCCC(C)CCCC(C)CCCC(C)C)O2 (racemic) [Example 16, dl-α-tocopheryl 5-(4-chlorobutyloxy)picolinate] |  |  | > 4000 | 40 |  |
| Cc1c(C)c2c(c(C)c1OC(=O)c1ccc(SCCCCl)cn1)CCC(C)(CCCC(C)CCCC(C)CCCC(C)C)O2 (racemic) [Example 23, dl-α-tocopheryl 5-(3-chloropropylthio)picolinate] |  |  | > 4000 | 43 |  |
| CCCCc1ccc(C(=O)Oc2c(C)c(C)c3c(c2C)CCC(C)(CCCC(C)CCCC(C)CCCC(C)C)O3)nc1 (racemic) [Example 1, dl-α-tocopheryl 5-butylpicolinate] |  |  |  |  | LD50 at 48 h ([4]; ip, acute toxicity LD50, intraperitoneally administered, calculated for 5-butylpicolinic acid, intraperitoneal): > 1210 mg/kg; LD50 at 48 h ([4]; ip, acute toxicity LD50, intraperitoneally administered, intraperitoneal, two days after administration): > 4000 mg/kg; LD50 at 48 h ([4]; po, acute toxicity LD50, orally administered, calculated for 5-butylpicolinic acid): > 1210 mg/kg; LD50 at 48 h ([4]; po, acute toxicity LD50, orally administered, oral, two days after administration): > 4000 mg/kg; deaths [5]: no case of death was noted; Blood pressure lowering rate, 1h [6, 13]: 20.3%; Blood pressure lowering rate, 2h [6, 13]: 3.2%; Blood pressure lowering rate, 3h [6, 13]: 0%; Blood pressure lowering rate, 4h [6, 13]: 0%; Blood pressure lowering rate, 1h [6, 14]: 29.0%; Blood pressure lowering rate, 2h [6, 14]: 18.3%; Blood pressure lowering rate, 3h [6, 14]: 13.0%; Blood pressure lowering rate, 4h [6, 14]: 0%; selectivity of hypotensive action for hypertension (in words) ([6]; conclusion from hypertensive vs normotensive rats): more selective for hypertension than 5-butylpicolinic acid; hypotensive action (in words) ([6]; spontaneous hypertensive rats, oral, vs 5-butylpicolinic acid or its mixture with dl-α-tocopherol): strong hypotensive action on spontaneous hypertensive rats substantially equivalent to 5-butylpicolinicacid or a mixture of it with dl-α-tocopherol; Blood pressure lowering rate, 1h ([7]; 150 mg/kg oral, 1h, normotensive Wistar rats): 2.4%; Blood pressure lowering rate, 2h ([7]; 150 mg/kg oral, 2h, normotensive Wistar rats): 18.3%; Blood pressure lowering rate, 3h ([7]; 150 mg/kg oral, 3h, normotensive Wistar rats): 8.7%; Blood pressure lowering rate, 4h ([7]; 150 mg/kg oral, 4h, normotensive Wistar rats): 0%; blood pressure lowering effect (in words) ([7]; normotensive rats, oral, vs 5-butylpicolinic acid): weaker both in strength and duration than that of 5-butylpicolinic acid |
| Cc1c(C)c2c(c(C)c1OC(=O)c1ccc(Oc3ccc(Cl)cc3)cn1)CCC(C)(CCCC(C)CCCC(C)CCCC(C)C)O2 (racemic) [Example 17, dl-α-tocopheryl 5-(4-chlorophenyloxy)picolinate] |  |  | > 4000 | 48 |  |
| O=C(O)c1ccc(CCCCBr)cn1 [reference compound] | 46 | 49 |  |  |  |
| CCCCSc1ccc(C(=O)O)nc1 [Referential Example 1, 5-n-butylthiopicolinic acid] |  | 36 |  |  | LD50 [1, 12]: 143 mg/kg; IC50 ([3]; Referential Example 1): 0.51 µM |
| O=C(O)c1ccc(SCCCCl)cn1 [3-Chloropropyl] | 179 | 48 |  |  | IC50 ([3]; Table 6): 0.55 µM |
| Cc1c(C)c2c(c(C)c1OC(=O)c1ccc(CCC(Cl)CCl)cn1)CCC(C)(CCCC(C)CCCC(C)CCCC(C)C)O2 (racemic) [Example 5, dl-α-tocopheryl 5-(3,4-dichlorobutyl)picolinate] |  |  | > 4000 | 53 |  |
| O=C(O)c1ccc(SCc2ccccc2)cn1 [Benzyl] |  |  |  |  | IC50 ([3]; Table 6): 0.28 µM |
| O=C(O)c1ccc(Oc2ccc(Cl)cc2)cn1 [reference compound] | 123 | 56 |  |  |  |
| Cc1c(C)c2c(c(C)c1OC(=O)c1ccc(CCCCBr)cn1)CCC(C)(CCCC(C)CCCC(C)CCCC(C)C)O2 (racemic) [Example 6, dl-α-tocopheryl 5-(4-bromobutyl)picolinate] |  |  | > 4000 | 48 |  |
| CCCCOc1ccc(C(=O)O)nc1 [reference compound] | 134 | 31 |  |  |  |
| Cc1c(C)c2c(c(C)c1OC(=O)c1ccc(CCC(Br)CBr)cn1)CCC(C)(CCCC(C)CCCC(C)CCCC(C)C)O2 (racemic) [Example 4, dl-α-tocopheryl 5-(3,4-dibromobutyl)picolinate] |  |  | > 4000 | 53 |  |
| C=CCSc1ccc(C(=O)O)nc1 [Allyl] |  |  |  |  | IC50 ([3]; Table 6): 0.55 µM |
| CCCCCCCCSc1ccc(C(=O)O)nc1 [n-Octyl] |  |  |  |  | IC50 ([3]; Table 6): 23 µM |
| CC(C)CCSc1ccc(C(=O)O)nc1 [i-Pentyl] |  |  |  |  | IC50 ([3]; Table 6): 0.21 µM |
| Cc1c(C)c2c(c(C)c1OC(=O)c1ccc(Cc3ccccc3)cn1)CCC(C)(CCCC(C)CCCC(C)CCCC(C)C)O2 (racemic) [Example 9, dl-α-tocopheryl 5-benzylpicolinate] |  |  | > 4000 | 41 |  |
| CCCCSc1ccc(C(=O)Oc2c(C)c(C)c3c(c2C)CCC(C)(CCCC(C)CCCC(C)CCCC(C)C)O3)nc1 (racemic) [Example 18, dl-α-tocopheryl 5-butylthiopicolinate] |  |  | > 4000 | 39 |  |
